Blank lines part the entries; values can stand above or below the compound they belong to.
Legend:
PcIDS1 [1] = target: T1, PcIDS1 (Phaedon cochleariae, UniProt M1JS91); experiment: crystal structure; assay type: binding
T1 construct: N-terminal signal peptide (residues 1-85) removed; N-terminal His6-SUMO tag cut with Ulp1; E. coli BL21(DE3); homodimer; C-terminal residue A429
T1 sequence (M1JS91 86-429): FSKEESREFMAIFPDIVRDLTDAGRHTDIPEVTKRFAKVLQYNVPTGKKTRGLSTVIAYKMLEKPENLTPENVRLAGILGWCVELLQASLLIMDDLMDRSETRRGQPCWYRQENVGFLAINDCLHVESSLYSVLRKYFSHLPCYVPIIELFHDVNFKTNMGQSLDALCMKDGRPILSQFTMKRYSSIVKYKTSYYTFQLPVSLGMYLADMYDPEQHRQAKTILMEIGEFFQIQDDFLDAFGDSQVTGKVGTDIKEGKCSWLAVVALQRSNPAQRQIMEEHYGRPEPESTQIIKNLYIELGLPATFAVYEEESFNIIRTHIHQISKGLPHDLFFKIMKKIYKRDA

PcIDS1 [2] = target: T1, PcIDS1; experiment: thermal shift assay (Sypro Orange); assay type: binding; settings: 5 mM MgCl2, pH 7.0

Structure (SMILES): O=P(O)(O)C(O)(Cn1ccnc1)P(=O)(O)O [ZOL, zoledronic acid]
- dTm (PcIDS1 [2]; 200 µM ligand, allylic site): 28 °C

Structure (SMILES): CC(C)=CCC/C(C)=C/CC/C(C)=C/COP(=O)(O)OP(=O)(O)O [FPP, farnesyl pyrophosphate]
- dTm (PcIDS1 [2]): 7 °C

Second part, led by results:

- crystal structure (PcIDS1 [1]; Mg2+, IPP added but not bound, allylic site): 3-Br-GPP mimics GPPAl coordination
Structure (SMILES): CC(C)=CCC/C(Br)=C/COP(=O)(O)OP(=O)(O)O [3-Br-GPP]

- dTm (PcIDS1 [2]; allylic and homoallylic sites): 7 °C
Structure (SMILES): C=C(C)CCOP(=O)(O)OP(=O)(O)O [IPP, isopentenyl pyrophosphate]

- dTm (PcIDS1 [2]; allylic site in the structure): 17 °C
Structure (SMILES): CC(C)=CCC/C(C)=C/COP(=O)(O)OP(=O)(O)O [GPP, geranyl pyrophosphate]
- crystal structure (PcIDS1 [1]; Mn2+, second site, allosteric): contains well-defined electron density for a second GPP molecule (GPPAllo; Fig. 3h)
